Several values for one entry are separate records, joined by “and”; a condition that tells them apart may be missing. Identical values can stand only once.

We go through one compound from patent publication US20090246134A1, “COMPOSITIONS AND METHODS FOR MODULATING GATED ION CHANNELS” (PainCeptor Pharma Corporation, priority 2007, published 2009).

For data set [1], the system named is CFA-induced change in weight bearing in Sprague-Dawley rats. The data set is described as follows: CFA model of chronic inflammatory pain, hindpaw weight bearing. The class given is in vivo, rat. Particulars: 24 h after CFA; 60 min after drug; Compound A 5, 10, 20 mg/kg i.p.; Compound H 10, 30, 60 mg/kg; morphine 3, 6, 10 mg/kg; n=7-8. As for the experimental part: Rats (body weight 260-300 g) were given a s.c. injection of CFA (50% in saline, 100 μl, Sigma) into the plantar surface of the hindpaw under brief halothane anaesthesia. After 24 h, they were then tested for hindpaw weight bearing responses, as assessed using an Incapacitance Tester (Linton Instrumentation, UK), (Zhu et al., 2005). The instrument incorporates a dual channel scale that separately measures the weight of the animal distributed to each hindpaw. While normal rats distribute their body weight equally between the two hindpaws (50-50), the discrepancy of weight distribution between an injured and non-injured paw is a natural reflection of the discomfort level in the injured paw (nocifensive behavior). The rats were placed in the plastic chamber designed so that each hindpaw rested on a separate transducer pad. […] For each rat, three readings from each paw were taken and then averaged. Side-to-side weight bearing difference was calculated as the average of the absolute value of the difference between two hindpaws from three trials (right paw reading-left paw reading).
Hindpaw weight bearing responses were measured in male Sprague-Dawley rats for 2-3 days prior to being given a hindpaw injection of CFA. Twenty-four hours later baseline responses were measured and rats were then administered Compound A (5, 10 and 20 mg/kg, i.p.), Compound H (10, 30 and 60 mg/kg) and morphine (3, 6 and 10 mg/kg). Weight bearing responses were then measured at 30, 60 and 120 min after drug or vehicle injection (data shown at 60 min.). […] All groups n=7-8.

Data set [2] in a line: Liver microsomes stability and metabolite identification (LC-MS), rat. The class given is in vitro ADME. From the text: (§1) The objective of this study is to analyze in vitro samples of Compound A and Compound B from rat and human microsomes using liquid chromatography quadrupole ion trap mass spectrometry and identify the nature of the metabolite(s) for each species.
(§2) The HPLC system consisted of a Thermo Surveror autosampler and a Thermo Surveyor MS pump (San Jose, Calif., USA). The LC-MS/MS system used was a Thermo LCQ Advantage (San Jose, Calif., USA). Data was acquired on a Dell Optiplex desktop computer (Round Rock, Tex., USA) equipped with operation system Windows XP professional. Data acquisition and analysis were performed using XCalibur 1.4 (San Jose, Calif., USA).
(§3) After the incubation period of the liver microsomes, the reaction was stopped with the addition of acetonitrile and frozen for transport. Before analysis, the samples were thawed at room temperature. They were vortexed vigorously and centrifuged at approximately 12000 g for 10 minutes. The supernatant was transferred into an injection vial for analysis.
(§4) A gradient mobile phase was used with a Thermo Phenyl 100×2 mm column with particle size of 5 μm. The initial mobile phase condition consisted of methanol and 0.1% formic acid solution at a ratio of 20:80, respectively. From 0 to 2 minutes, the ratio was maintained at 20:80. From 2 to 10 minutes, a linear gradient was applied and a ratio of 90:10 was maintained from 10 to 12 minutes. […] The flow rate was fixed at 0.25 mL/min.
(§5) The mass spectrometer was interfaced with the HPLC system using a pneumatic assisted electrospray ion source. The sheath gas was set to 15 units and the ESI electrode was set to 4000 V (positive mode). The capillary temperature was set at 300° C., and the capillary voltage was set to 13 V. The mass spectrometer was operating in full scan MS mode using one segment analysis (200-800).
(In general: Microsomes from liver hold many membrane-bound enzymes, among them those of drug oxidation.)

Data set [3] is described as follows: Metabolite identification (LC-MS), sample 1, source of sample not given. The class given is in vitro ADME.
Text: as §1, §2, §3, §4, §5

Setting [4] is: rat microsomes 60 min (samples 5-7).

Take `COc1ccc(F)cc1-c1cc2c(c3c1CCN(C)C3)NC(=O)C2=NO` [Compound A, 5-(5-fluoro-2-methoxyphenyl)-6,7,8,9-tetrahydro-3-(hydroxyimino)-8-methyl-1H-pyrrolo[3,2-h]isoquinoline-2(3H)-one]: the “CFA-induced change in weight bearing compared with vehicle” value in data set [1] is “marked dose-dependent attenuation”. Besides, the Total % metabolites in data set [2] (% peak area relative to parent at T0, 60 min incubation, rat microsomes) is on record as 32.76%. In data set [2] (setting [4]), the “Compound A metabolite identification: m/z 342” value was “Yes”, the “Compound A metabolite identification: m/z 356 (parent)” value is reported as “Yes”, the “Compound A metabolite identification: m/z 372” value is listed as “Yes” and the “Compound A metabolite identification: m/z 412” value is “trace”. The “Calc. Conc.” value in data set [2] (rat microsomes, time 0 min) is 3.61 µM and 3.80 µM. In data set [2] (rat microsomes, time 60 min), the “Calc. Conc.” value is 2.49 µM and 2.67 µM and 2.40 µM. Further, in data set [3], the “Compound A metabolite identification: m/z 342” value is listed as “no”, the “Compound A metabolite identification: m/z 356 (parent)” value is “Yes”, the “Compound A metabolite identification: m/z 372” value is recorded as “no” and the “Compound A metabolite identification: m/z 412” value is recorded as “no”.
